Experimental data from ChEMBL document CHEMBL3885881, “DrugMatrix”.

Organism: Rattus norvegicus
Experiment: DrugMatrix - Regimen: Daily Repeat
Format: toxicity, organism-based, Sprague-Dawley
Set-up: regimen Daily Repeat, gender Male, age 6-8 weeks
Conditions: in vivo, po, route oral GAVAGE, […]; for ABSOLUTE BASOPHIL / ABSOLUTE EOSINOPHIL / ABSOLUTE LYMPHOCYTE / ABSOLUTE MONOCYTE / ABSOLUTE SEGMENTED NEUTROPHIL / BASOPHIL / EOSINOPHIL / ERYTHROCYTE COUNT / HEMATOCRIT / HEMOGLOBIN / LEUKOCYTE COUNT / LYMPHOCYTE / MEAN CORPUSCULAR HEMOGLOBIN / MEAN CORPUSCULAR HEMOGLOBIN CONCENTRATION / MEAN CORPUSCULAR VOLUME / MONOCYTE / NEUTROPHIL / NUCLEATED RED BLOOD CELLS / PLATELET COUNT: tissue Blood; for ALANINE AMINOTRANSFERASE / ALBUMIN / ALKALINE PHOSPHATASE / ASPARTATE AMINOTRANSFERASE / BLOOD UREA NITROGEN / CARBON DIOXIDE / CHLORIDE / CHOLESTEROL / CREATINE PHOSPHOKINASE / CREATININE / GLUCOSE / LACTATE DEHYDROGENASE / LIPASE / PHOSPHORUS / POTASSIUM / SODIUM / TOTAL BILIRUBIN / TOTAL PROTEIN / URIC ACID: tissue Plasma
[1] = 0 mg/kg, 72 h, dose level Control, time 3 day
[2] = 0 mg/kg, 120 h, dose level Control, time 5 day
[3] = 2 mg/kg, 72 h, dose level High, time 3 day

COc1ccc2c(c1)c(CC(=O)OCC(=O)O)c(C)n2C(=O)c1ccc(Cl)cc1 [ACEMETACIN]
ABSOLUTE BASOPHIL [1]: 0 CELLS/uL | ABSOLUTE EOSINOPHIL [1]: 138.5 CELLS/uL | ABSOLUTE LYMPHOCYTE [1]: 13978.67 CELLS/uL | ABSOLUTE MONOCYTE [1]: 391 CELLS/uL | ABSOLUTE SEGMENTED NEUTROPHIL [1]: 1608.5 CELLS/uL | BASOPHIL [1]: 0% | EOSINOPHIL [1]: 1% | ERYTHROCYTE COUNT [1]: 5.8 x10E6/uL | HEMATOCRIT [1]: 36.22% | HEMOGLOBIN [1]: 13.65 G/DL | LEUKOCYTE COUNT [1]: 16.12 x10E3/uL | LYMPHOCYTE [1]: 86.67% | MEAN CORPUSCULAR HEMOGLOBIN [1]: 23.58 pg | MEAN CORPUSCULAR HEMOGLOBIN CONCENTRATION [1]: 37.72 G/DL | MEAN CORPUSCULAR VOLUME [1]: 62.52 fL | MONOCYTE [1]: 2.5% | NEUTROPHIL [1]: 9.83% | NUCLEATED RED BLOOD CELLS [1]: 0 /100WBC | PLATELET COUNT [1]: 1214.17 x10E3/uL | ALANINE AMINOTRANSFERASE [1]: 59.5 u/L | ALBUMIN [1]: 4.1 G/DL | ALKALINE PHOSPHATASE [1]: 393.83 u/L | ASPARTATE AMINOTRANSFERASE [1]: 87.83 u/L | BLOOD UREA NITROGEN [1]: 16.33 mg/dL | CARBON DIOXIDE [1]: 28.17 mmol/L | CHLORIDE [1]: 100.83 MEQ/L | CHOLESTEROL [1]: 73.33 mg/dL | CREATINE PHOSPHOKINASE [1]: 398 u/L | CREATININE [1]: 0.2 mg/dL | GLUCOSE [1]: 152.67 mg/dL | LACTATE DEHYDROGENASE [1]: 501.5 u/L | LIPASE [1]: 9.5 u/L | PHOSPHORUS [1]: 10.77 mg/dL | POTASSIUM [1]: 6.44 MEQ/L | SODIUM [1]: 143.4 MEQ/L | TOTAL BILIRUBIN [1]: 0.17 mg/dL | TOTAL PROTEIN [1]: 5.92 G/DL | URIC ACID [1]: 1.68 mg/dL | ABSOLUTE BASOPHIL [2]: 0 CELLS/uL | ABSOLUTE EOSINOPHIL [2]: 183.33 CELLS/uL | ABSOLUTE LYMPHOCYTE [2]: 14952.83 CELLS/uL | ABSOLUTE MONOCYTE [2]: 238.5 CELLS/uL | ABSOLUTE SEGMENTED NEUTROPHIL [2]: 1642 CELLS/uL | BASOPHIL [2]: 0% | EOSINOPHIL [2]: 1% | ERYTHROCYTE COUNT [2]: 5.89 x10E6/uL | HEMATOCRIT [2]: 36.13% | HEMOGLOBIN [2]: 13.37 G/DL | LEUKOCYTE COUNT [2]: 17.02 x10E3/uL | LYMPHOCYTE [2]: 87.17% | MEAN CORPUSCULAR HEMOGLOBIN [2]: 22.73 pg | MEAN CORPUSCULAR HEMOGLOBIN CONCENTRATION [2]: 37.02 G/DL | MEAN CORPUSCULAR VOLUME [2]: 61.45 fL | MONOCYTE [2]: 1.5% | NEUTROPHIL [2]: 10.33% | NUCLEATED RED BLOOD CELLS [2]: 0 /100WBC | PLATELET COUNT [2]: 1183.5 x10E3/uL | ALANINE AMINOTRANSFERASE [2]: 54.83 u/L | ALBUMIN [2]: 4.28 G/DL | ALKALINE PHOSPHATASE [2]: 363.17 u/L | ASPARTATE AMINOTRANSFERASE [2]: 96.83 u/L | BLOOD UREA NITROGEN [2]: 15.67 mg/dL | CARBON DIOXIDE [2]: 26.17 mmol/L | CHLORIDE [2]: 102.67 MEQ/L | CHOLESTEROL [2]: 63.67 mg/dL | CREATINE PHOSPHOKINASE [2]: 594.33 u/L | CREATININE [2]: 0.2 mg/dL | GLUCOSE [2]: 182.33 mg/dL | LACTATE DEHYDROGENASE [2]: 656.5 u/L | LIPASE [2]: 9.33 u/L | PHOSPHORUS [2]: 11.7 mg/dL | POTASSIUM [2]: 5.92 MEQ/L | SODIUM [2]: 142.62 MEQ/L | TOTAL BILIRUBIN [2]: 0.13 mg/dL | TOTAL PROTEIN [2]: 5.85 G/DL | URIC ACID [2]: 1.8 mg/dL | ABSOLUTE BASOPHIL [3]: 0 CELLS/uL | ABSOLUTE EOSINOPHIL [3]: 380 CELLS/uL | ABSOLUTE LYMPHOCYTE [3]: 13622 CELLS/uL | ABSOLUTE MONOCYTE [3]: 500 CELLS/uL | ABSOLUTE SEGMENTED NEUTROPHIL [3]: 2164.67 CELLS/uL | BASOPHIL [3]: 0% | EOSINOPHIL [3]: 2.33% | ERYTHROCYTE COUNT [3]: 5.07 x10E6/uL | HEMATOCRIT [3]: 32.77% | HEMOGLOBIN [3]: 12.63 G/DL | LEUKOCYTE COUNT [3]: 16.67 x10E3/uL | LYMPHOCYTE [3]: 81.67% | MEAN CORPUSCULAR HEMOGLOBIN [3]: 24.97 pg | MEAN CORPUSCULAR HEMOGLOBIN CONCENTRATION [3]: 38.57 G/DL | MEAN CORPUSCULAR VOLUME [3]: 64.77 fL | MONOCYTE [3]: 3% | NEUTROPHIL [3]: 13% | NUCLEATED RED BLOOD CELLS [3]: 0.33 /100WBC | PLATELET COUNT [3]: 1026.67 x10E3/uL | ALANINE AMINOTRANSFERASE [3]: 66.67 u/L | ALBUMIN [3]: 4.07 G/DL | ALKALINE PHOSPHATASE [3]: 414.67 u/L | ASPARTATE AMINOTRANSFERASE [3]: 86 u/L | BLOOD UREA NITROGEN [3]: 15 mg/dL | CARBON DIOXIDE [3]: 28.67 mmol/L | CHLORIDE [3]: 101.67 MEQ/L | CHOLESTEROL [3]: 68 mg/dL | CREATINE PHOSPHOKINASE [3]: 297.67 u/L | CREATININE [3]: 0.19 mg/dL | GLUCOSE [3]: 146.67 mg/dL | LACTATE DEHYDROGENASE [3]: 197.67 u/L | LIPASE [3]: 9.33 u/L | PHOSPHORUS [3]: 10.4 mg/dL | POTASSIUM [3]: 6.36 MEQ/L | SODIUM [3]: 141.2 MEQ/L | TOTAL BILIRUBIN [3]: 0.17 mg/dL | TOTAL PROTEIN [3]: 5.47 G/DL | URIC ACID [3]: 1.13 mg/dL
